Test results from patent US20260274829A1, “NEW E3 UBIQUITIN LIGASE LIGAND, PROTEIN DEGRADATION AGENT AND USE THEREOF” (GLUETACS THERAPEUTICS (SHANGHAI) CO., LTD., priority 2023, published 2026).
pIC50: −log10 of the molar value.

Each compound was assayed against T1, human Cereblon WT GST-tagged protein (Homo sapiens, UniProt Q96SW2) (assay: CRBN binding, HTRF CEREBLON BINDING kit). Details: CRBN binding, HTRF CEREBLON BINDING kit.
T1 construct: purchased CISBIO 64BDCRBNPEH
Summary of the method: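 HTRF competition in which test compounds displace a Thalidomide-Re tracer from GST-tagged human Cereblon WT, detected with a GST Eu antibody. Incubation lasted 3 hours at room temperature, with emission read at 620 and 665 nm. Inhibition rate was derived from 665/620 ratios relative to blank and solvent control wells.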

T1 sequence (Q96SW2 whole entry): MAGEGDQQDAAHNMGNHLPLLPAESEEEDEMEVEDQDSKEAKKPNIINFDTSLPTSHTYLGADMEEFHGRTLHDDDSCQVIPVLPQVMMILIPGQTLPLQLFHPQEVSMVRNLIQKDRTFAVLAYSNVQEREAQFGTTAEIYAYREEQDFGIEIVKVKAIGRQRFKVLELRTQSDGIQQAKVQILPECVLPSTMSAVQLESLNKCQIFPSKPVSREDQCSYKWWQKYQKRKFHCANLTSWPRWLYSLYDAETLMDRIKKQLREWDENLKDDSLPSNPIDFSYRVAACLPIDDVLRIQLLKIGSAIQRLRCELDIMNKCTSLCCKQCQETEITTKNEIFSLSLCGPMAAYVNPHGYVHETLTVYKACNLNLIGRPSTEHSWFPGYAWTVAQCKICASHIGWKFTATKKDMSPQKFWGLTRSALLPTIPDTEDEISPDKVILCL

Compound | pIC50
Cc1nc2c(F)cc(-c3nc(Nc4ccc(N5CCC(N(C)Cc6cccc(N7CCC(=O)NC7=O)c6)CC5)cn4)ncc3F)cc2n1C(C)C [GT-06839, 1-(3-(((1-(6-((5-fluoro-4-(4-fluoro-1-isopropyl-2-methyl-1H-benzo[d]imidazol-6-yl)pyrimidin-2-yl)amino)pyridin-3-yl)piperidin-4-yl)(methyl)amino)methyl)phenyl)dihydropyrimidine-2,4(1H,3H)-dione] | 5.72 to 6.00
CN(Cc1cncc(C2CCC(=O)NC2=O)c1)C1CCN(c2ccc(-c3cc(F)c4c(c3)C(=O)N(C(C(=O)Nc3nccs3)c3ncn5c3CCC5)C4)cc2)CC1 (centres unmarked) [GT-07393, 2-(6,7-dihydro-5H-pyrrolo[1,2-c]imidazol-1-yl)-2-(6-(4-(4-(((5-(2,6-dioxopiperidin-3-yl)pyridin-3-yl)methyl)(methyl)amino)piperidin-1-yl)phenyl)-4-fluoro-1-oxoisoindolin-2-yl)-N-(thiazol-2-yl)acetamide] | > 6.30
C=CC(=O)N1CCC[C@@H](n2nc(-c3ccc(Oc4ccccc4)cc3)c3c(N)ncnc32)C1 [ibrutinib, Ibrutinib, reference compound] | < 5.00
C=CC(=O)N1CCC(c2ccc(C(N)=O)c(-c3ccc(Oc4ccccc4)cc3)n2)CC1 [Orelabrutinib, reference compound] | < 5.00
COc1cc2nn(C3CCN(Cc4ccc(N5CCC(=O)NC5=O)cc4F)CC3)cc2cc1NC(=O)c1cccc(C(F)(F)F)n1 [GT-04777, N-(2-(1-(4-(2,4-dioxotetrahydropyrimidin-1(2H)-yl)-2-fluorobenzyl)piperidin-4-yl)-6-methoxy-2H-indazol-5-yl)-6-(trifluoromethyl)picolinamide] | 5.72 to 6.00
COc1cc(N2CCN(Cc3ccc(N4CCC(=O)NC4=O)c(F)c3)CC2)ccc1Nc1ncc(Cl)c(Nc2ccccc2P(C)(C)=O)n1 [GT-07346, 1-(4-((4-(4-((5-chloro-4-((2-(dimethylphosphoryl)phenyl)amino)pyrimidin-2-yl)amino)-3-methoxyphenyl)piperazin-1-yl)methyl)-2-fluorophenyl)dihydropyrimidine-2,4(1H,3H)-dione] | 5.72 to 6.00
Cc1cc(Nc2ncc(Cl)c(Nc3ccccc3S(=O)(=O)C(C)C)n2)c(OC(C)C)cc1C1CCN(Cc2cc(C3CCC(=O)NC3=O)cnc2F)CC1 (centres unmarked) [GT-07598, 3-(5-((4-(4-((5-chloro-4-((2-(isopropylsulfonyl)phenyl)amino)pyrimidin-2-yl)amino)-5-isopropoxy-2-methylphenyl)piperidin-1-yl)methyl)-6-fluoropyridin-3-yl)piperidine-2,6-dione] | 6.00 to 6.30
CC(C)(O)c1cc2nn(C3CCN(Cc4cccc(N5CCC(=O)NC5=O)c4)CC3)cc2cc1NC(=O)c1cccc(C(F)(F)F)n1 [GT-05755, N-(2-(1-(3-(2,4-dioxotetrahydropyrimidin-1(2H)-yl)benzyl)piperidin-4-yl)-6-(2-hydroxypropan-2-yl)-2H-indazol-5-yl)-6-(trifluoromethyl)picolinamide] | 6.00 to 6.30
O=C1CCN(c2ccc(CN3C[C@@H]4C[C@H]3CN4c3ccc(-c4cc(F)c5c(c4)C(=O)N(C(C(=O)Nc4nccs4)c4ncn6c4CCC6)C5)cc3)cc2)C(=O)N1 (stereo partly drawn) [GT-05116, 2-(6,7-dihydro-5H-pyrrolo[1,2-c]imidazol-1-yl)-2-(6-(4-((1S,4S)-5-(4-(2,4-dioxotetrahydropyrimidin-1(2H)-yl)benzyl)-2,5-diazabicyclo[2.2.1]heptan-2-yl)phenyl)-4-fluoro-1-oxoisoindolin-2-yl)-N-(thiazol-2-yl)acetamide] | 6.00 to 6.30
COc1cc(N2CCC(N3CCN(Cc4ccc(N5CCC(=O)NC5=O)cn4)CC3)CC2)c(C)cc1Nc1ncc(Br)c(Nc2ccc3nccnc3c2P(C)(C)=O)n1 [GT-06003, 1-(6-((4-(1-(4-((5-bromo-4-((5-(dimethylphosphoryl)quinoxalin-6-yl)amino)pyrimidin-2-yl)amino)-5-methoxy-2-methylphenyl)piperidin-4-yl)piperazin-1-yl)methyl)pyridin-3-yl)dihydropyrimidine-2,4(1H,3H)-dione] | 5.72 to 6.00
O=C1CCC(c2cnc(F)c(CN3C[C@H]4C[C@@H]3CN4c3ccc(-c4cc(F)c5c(c4)C(=O)N(C(C(=O)Nc4nccs4)c4ncn6c4CCC6)C5)cc3)c2)C(=O)N1 (stereo partly drawn) [GT-07562, 2-(6,7-dihydro-5H-pyrrolo[1,2-c]imidazol-1-yl)-2-(6-(4-((1R,4R)-5-((5-(2,6-dioxopiperidin-3-yl)-2-fluoropyridin-3-yl)methyl)-2,5-diazabicyclo[2.2.1]heptan-2-yl)phenyl)-4-fluoro-1-oxoisoindolin-2-yl)-N-(thiazol-2-yl)acetamide] | > 6.30
Cc1nc2c(F)cc(-c3nc(Nc4ccc(N5CCC(N6CCN(Cc7cccc(NC8CCC(=O)NC8=O)c7)CC6)CC5)cn4)ncc3F)cc2n1C(C)C (centres unmarked) [GT-06743, 3-((3-((4-(1-(6-((5-fluoro-4-(4-fluoro-1-isopropyl-2-methyl-1H-benzo[d]imidazol-6-yl)pyrimidin-2-yl)amino)pyridin-3-yl)piperidin-4-yl)piperazin-1-yl)methyl)phenyl)amino)piperidine-2,6-dione] | 5.72 to 6.00
CC(C)(O)c1cc2nn(C3CCN(Cc4ccc(N5CCC(=O)NC5=O)cc4)CC3)cc2cc1NC(=O)c1cccc(C(F)(F)F)n1 [GT-05754, N-(2-(1-(4-(2,4-dioxotetrahydropyrimidin-1(2H)-yl)benzyl)piperidin-4-yl)-6-(2-hydroxypropan-2-yl)-2H-indazol-5-yl)-6-(trifluoromethyl)picolinamide] | 6.00 to 6.30
O=C1CCC(c2ccc(CN3CCN(c4ccc(-c5cc(F)c6c(c5)C(=O)N(C(C(=O)Nc5nccs5)c5ncn7c5CCC7)C6)cc4)CC3)nc2)C(=O)N1 (centres unmarked) [GT-07381, 2-(6,7-dihydro-5H-pyrrolo[1,2-c]imidazol-1-yl)-2-(6-(4-(4-((5-(2,6-dioxopiperidin-3-yl)pyridin-2-yl)methyl)piperazin-1-yl)phenyl)-4-fluoro-1-oxoisoindolin-2-yl)-N-(thiazol-2-yl)acetamide] | > 6.30
